The source of these data is patent US20070060573A1, “Acyltryptophanols” (priority 2005, published 2007).

In general, IC50 refers to the midpoint of a concentration-inhibition curve.

The experiment addresses T1, human FSH receptor (Homo sapiens, UniProt P23945).
T1 construct: expressed in transfected cells; host or cells: CHO cells (hFSHR clone 16)
T1 sequence (P23945 18-695): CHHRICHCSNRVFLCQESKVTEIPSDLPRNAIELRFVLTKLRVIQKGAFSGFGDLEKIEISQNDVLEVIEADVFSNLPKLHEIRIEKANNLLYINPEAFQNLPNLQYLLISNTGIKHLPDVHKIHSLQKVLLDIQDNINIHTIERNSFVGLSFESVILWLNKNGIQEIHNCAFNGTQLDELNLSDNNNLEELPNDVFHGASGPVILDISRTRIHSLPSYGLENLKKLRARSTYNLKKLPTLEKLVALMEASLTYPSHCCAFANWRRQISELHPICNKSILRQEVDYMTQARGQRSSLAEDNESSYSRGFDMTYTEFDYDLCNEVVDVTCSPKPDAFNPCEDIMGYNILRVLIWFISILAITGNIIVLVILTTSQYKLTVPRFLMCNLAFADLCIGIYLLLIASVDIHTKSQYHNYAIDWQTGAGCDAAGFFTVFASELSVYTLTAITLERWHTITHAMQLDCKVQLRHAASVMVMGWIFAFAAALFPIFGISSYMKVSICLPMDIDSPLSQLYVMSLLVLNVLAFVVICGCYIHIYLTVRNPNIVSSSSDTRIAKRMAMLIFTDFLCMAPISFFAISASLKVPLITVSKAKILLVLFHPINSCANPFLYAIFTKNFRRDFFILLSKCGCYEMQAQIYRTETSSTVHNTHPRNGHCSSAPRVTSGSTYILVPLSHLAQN
The experiment is described as follows: HTRF assay for measuring cAMP in cells, FSH-antagonistic effect (in the presence of hFSH). The note with it: hFSHR clone 16 cells (CHO cells stably transfected with the human FSH receptor), in the presence of 1e-9 mol/l hFSH, 37° C. for 2 h. In kind it is cell-based.
Excerpt: […]
As to `COc1cc(-c2cc(C(=O)NC(CO)Cc3c[nH]c4ccc(Br)cc34)c3ccccc3n2)cc(OC)c1OC` (racemic) [Example 1, N-[(R,S)-2-(5-Bromo-1H-indol-3-yl)-1-(hydroxymethyl)ethyl]-2-(3,4,5-trimethoxyphenyl)quinoline-4-carboxamide], the IC50 amounted to 7 µM.
As for `COc1cc(-c2cc(C(=O)NC(CO)Cc3c[nH]c4cc(F)ccc34)c3ccccc3n2)cc(OC)c1OC` (racemic) [Example 8, N-[(R,S)-2-(6-Fluoro-1H-indol-3-yl)-1-(hydroxymethyl)ethyl]-2-(3,4,5-trimethoxyphenyl)quinoline-4-carboxamide], the figure is 1 µM; as for `COc1cc(-c2cc(C(=O)NC(CO)Cc3c[nH]c4ccc(OCc5ccccc5)cc34)c3ccccc3n2)cc(OC)c1OC` (racemic) [Example 9, N-[(R,S)-1-(Hydroxymethyl)-2-[5-(phenylmethoxy)-1H-indol-3-yl]ethyl]-2-(3,4,5-trimethoxyphenyl)quinoline-4-carboxamide], 0.2 µM; as for `COc1cc(-c2cc(C(=O)NC(CO)Cc3c[nH]c4c(C)cccc34)c3ccccc3n2)cc(OC)c1OC` (racemic) [Example 10, N-[(R,S)-1-(Hydroxymethyl)-2-(7-methyl-1H-indol-3-yl)ethyl]-2-(3,4,5-trimethoxyphenyl)quinoline-4-carboxamide], 1 µM.
Turning to `COc1ccc2nc(-c3ccc(OC)c(OC)c3OC)cc(C(=O)N[C@@H](CO)Cc3c[nH]c4ccccc34)c2c1` [Example 16, N-[(R)-1-(Hydroxymethyl)-2-(1H-indol-3-yl)ethyl]-6-methoxy-2-(2,3,4-trimethoxyphenyl)quinoline-4-carboxamide], the IC50 was determined as 4 µM.
In the case of `COc1cc(-c2cc(C(=O)N[C@@H](CO)Cc3c[nH]c4ccccc34)c3cc(F)ccc3n2)cc(OC)c1OC` [Example 17, 6-Fluoro-N-[(R)-1-(hydroxymethyl)-2-(1H-indol-3-yl)ethyl]-2-(3,4,5-trimethoxyphenyl)quinoline-4-carboxamide], the IC50 came to 0.4 µM.
Turning to `COc1cc(-c2cc(C(=O)N[C@@H](CO)Cc3c[nH]c4ccccc34)c3cc([N+](=O)[O-])ccc3n2)cc(OC)c1OC` [Example 19, N-[(R)-1-(Hydroxymethyl)-2-(1H-indol-3-yl)ethyl]-6-nitro-2-(3,4,5-trimethoxyphenyl)quinoline-4-carboxamide], the IC50 came to 6 µM.
The same measure for `COc1ccc2nc(-c3cc(OC)c(OC)c(OC)c3)cc(C(=O)N[C@@H](CO)Cc3cn(C)c4ccccc34)c2c1` [Example 22, N-[(R)-1-(Hydroxymethyl)-2-(1-methyl-1H-indol-3-yl)ethyl]-6-methoxy-2-(3,4,5-trimethoxyphenyl)quinoline-4-carboxamide]: 0.3 µM; for `O=C(N[C@@H](CO)Cc1c[nH]c2ccccc12)c1cc(-c2ccc3c(c2)CCO3)nc2ccccc12` [Example 36, 2-(2,3-Dihydrobenzofuran-5-yl)-N-[(R)-1-(hydroxymethyl)-2-(1H-indol-3-yl)ethyl]quinoline-4-carboxamide]: 6 µM.
As for `COc1ccc2nc(/C=C/c3ccc(OC)c(OC)c3)cc(C(=O)N[C@@H](CO)Cc3c[nH]c4ccccc34)c2c1` [Example 38, 2-[(E)-2-(3,4-Dimethoxyphenyl)ethenyl]-N-[(R)-1-(hydroxymethyl)-2-(1H-indol-3-yl)ethyl]-6-methoxyquinoline-4-carboxamide], the IC50 came to 0.9 µM.
The same measure for `CC(C)c1cccc(-c2cccc(C(=O)N[C@@H](CO)Cc3c[nH]c4ccccc34)c2)c1` [Example 59, N-[(R)-1-(Hydroxymethyl)-2-(1H-indol-3-yl)ethyl]-3′-(1-methylethyl)[1,1′-biphenyl]-3-carboxamide]: 6 µM.
As to `CC(C)c1cccc(-c2ccccc2C(=O)N[C@@H](CO)Cc2c[nH]c3ccccc23)c1` [Example 86, N-[(R)-1-(Hydroxymethyl)-2-(1H-indol-3-yl)ethyl]-3′-(1-methylethyl)[1,1′-biphenyl]-2-carboxamide], the IC50 came to 8 µM.
As for `COc1ccc(OC)c(-c2cccc(C(=O)N[C@@H](CO)Cc3c[nH]c4ccccc34)c2)c1` [Example 87, N-[(R)-1-(Hydroxymethyl)-2-(1H-indol-3-yl)ethyl]-2′,5′-dimethoxy-[1,1′-biphenyl]-3-carboxamide], the figure is 10 µM.
Consider `COc1ccc(-c2cc(F)c(F)c(F)c2)c(C(=O)N[C@@H](CO)Cc2c[nH]c3ccccc23)c1` [Example 88, 3′,4′, 5′-Trifluoro-N-[(R)-1-(hydroxymethyl)-2-(1H-indol-3-yl)ethyl]-4-methoxy[1,1′-biphenyl]-2-carboxamide], for which the IC50 amounted to 10 µM.
As for `COc1cc(COc2ccccc2CCC(=O)N[C@@H](CO)Cc2c[nH]c3ccccc23)cc(OC)c1OC` [Example 91, N-[(R)-1-(Hydroxymethyl)-2-(1H-indol-3-yl)ethyl]-2-[(3,4,5-trimethoxyphenyl)methoxy]phenylpropanamide], the IC50 was 6 µM.
The same measure for `COc1ccc2nc(CCc3ccc(OC)c(OC)c3)cc(C(=O)N[C@@H](CO)Cc3c[nH]c4ccccc34)c2c1` [Example 96, 2-[2-(3,4-dimethoxyphenyl)ethyl]-N-[(R)-1-(hydroxymethyl)-2-(1H-indol-3-yl)ethyl]-6-methoxyquinoline-4-carboxamide]: 7 µM.
`COc1ccc2cc(-c3cc(C(=O)N[C@@H](CO)Cc4c[nH]c5ccccc45)c4ccccc4n3)ccc2c1` [Example 97, 2-(6-Methoxy-naphthalen-2-yl)quinoline-4-carboxylic acid [(R)-1-hydroxymethyl-2-(1H-indol-3-yl)ethyl]amide]: the IC50 was 4 µM.
For the compound `Cc1nc(C)c(-c2cc(C(=O)N[C@@H](CO)Cc3c[nH]c4ccccc34)c3cc(Br)ccc3n2)s1` [Example 108, 6-Bromo-2-(2,4-dimethyl-thiazol-5-yl)quinoline-4-carboxylic acid [(R)-2-hydroxy-1-(1H-indol-3-ylmethyl)ethyl]amide], the IC50 turned out to be 3 µM.
The same measure for `COc1ccc2nc(-c3cc4c(F)cccc4o3)cc(C(=O)N[C@@H](CO)Cc3c[nH]c4ccccc34)c2c1` [Example 120, 2-(4-Fluorobenzofuran-2-yl)-N-[(R)-1-(hydroxymethyl)-2-(1H-indol-3-yl)ethyl]-6-methoxyquinoline-4-carboxamide]: 1.5 µM.
As for `CCOc1ccc(-c2cnc(OC)nc2)cc1C(=O)N[C@@H](CO)Cc1c[nH]c2ccccc12` [Example 130, 2-Ethoxy-N-[(R)-1-hydroxymethyl-2-(1H-indol-3-yl)ethyl]-5-(2-methoxypyrimidin-5-yl)benzamide], the figure is 4 µM.
Regarding `CCOc1ccc(-c2ccc(C)cc2)cc1C(=O)N[C@@H](CO)Cc1c[nH]c2ccccc12` [Example 162, 4-Ethoxy-4′-methylbiphenyl-3-carboxylic acid [(R)-1-hydroxy-methyl-2-(1H-indol-3-yl)ethyl]amide], the IC50 worked out at 1.5 µM.
For the compound `COc1ccc(-c2ccc(OC)c(C(=O)N[C@@H](CO)Cc3c[nH]c4ccccc34)c2)cc1F` [Example 307, 3′-Fluoro-4,4′-dimethoxybiphenyl-3-carboxylic acid [(R)-2-hydroxy-1-(1H-indol-3-ylmethyl)ethyl]amide], the IC50 was 0.45 µM.
As for `CCn1cc(C[C@H](CO)NC(=O)c2cc(-c3cc(F)c(OC)c(F)c3)nc3ccc(OC)cc23)c2ccccc21` [Example 337], the figure is 3.5 µM.
As for `CCCCCCn1cc(C[C@H](CO)NC(=O)c2cc(-c3cc(OC)c(OC)c(OC)c3)nc3ccc(OC)cc23)c2ccccc21` [Example 345, N-[(R)-1-(Hydroxymethyl)-2-(1-nhexyl-1H-indol-3-yl)ethyl]-6-methoxy-2-(3,4,5-trimethoxyphenyl)quinoline-4-carboxamide], the figure is 1 µM; as for `COc1cc(-c2cc(C(=O)N[C@@H](CO)Cc3c[nH]c4ccccc34)c3nc[nH]c3c2)cc(OC)c1OC` [Example 361, 6-(3,4,5-Trimethoxyphenyl)-1H-benzoimidazole-4-carboxylic acid [(R)-2-hydroxy-1-(1H-indol-3-ylmethyl)ethyl]amide], 4 µM; as for `COc1ccc2nc(-c3ccc(OC)c(F)c3)nc(C(=O)N[C@@H](CO)Cc3c[nH]c4ccccc34)c2c1` [Example 368, 2-(3-Fluoro-4-methoxyphenyl)-6-methoxyquinazoline-4-carboxylic acid [(R)-2-hydroxy-1-(1H-indol-3-ylmethyl)ethyl]amide], 2.5 µM.
As for `COc1ccc2nc(-c3cc(OC)c(OC)c(OC)c3)cc(C(=O)N[C@H](Cc3c[nH]c4ccccc34)C(C)(C)O)c2c1` [Example 373, 6-Methoxy-2-(3,4,5-trimethoxyphenyl)quinoline-4-carboxylic acid [(R)-2-hydroxy-1-(1H-indol-3-ylmethyl)-2-methylpropyl]amide], the IC50 came out at 8 µM.
As for `COc1cc(-c2cc(C#CCO)cc(C(=O)N[C@@H](CO)Cc3c[nH]c4ccccc34)c2)cc(OC)c1OC` [Example 379, 5-(3-Hydroxyprop-1-ynyl)-3′,4′,5′-trimethoxybiphenyl-3-carboxylic acid [(R)-1-hydroxy-methyl-2-(1H-indol-3-yl)ethyl]amide], the figure is 4.5 µM.
